According to patent US10485235B2, “Aryloxypyrimidinyl ethers as herbicides” (FMC Corporation, priority 2015, dated 2019):

What was measured:
Format in all cases: in vivo
kochia (Kochia scoparia) [1] = assay: Test A preemergence, kochia; settings: Preemergence, 0 to 100 scale (0 no effect, 100 complete control)
Outline: (§1)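 Ratings run 0–100, where 100 is complete control, and were scored visually against untreated plants about 10 days after treatment under greenhouse conditions. Formulated chemicals were sprayed either onto the soil surface after seeding (preemergence) or onto one- to two-leaf seedlings 2–10 cm high (postemergence).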

[2] = test system: foxtail, giant (giant foxtail, Setaria faberii); assay: Test A preemergence, giant foxtail; settings: Preemergence, 0 to 100 scale (0 no effect, 100 complete control)
Outline: as §1

[3] = test system: barnyardgrass (Echinochloa crus-galli); assay: Test A postemergence, barnyardgrass
Outline: as §1

[4] = test system: pigweed (Amaranthus retroflexus); assay: Test A postemergence, pigweed
Outline: as §1

[5] = test system: wheat (Triticum aestivum); assay: Test A postemergence, wheat
Outline: as §1

[6] = test system: blackgrass (Alopecurus myosuroides); assay: Test A postemergence, blackgrass
Outline: as §1

[7] = test system: ducksalad (Heteranthera limosa); assay: Test B flooded paddy test, ducksalad; settings: 250 g ai/ha, Flood; visual rating after 13 to 15 days; scale 0 to 100, 0 is no effect, 100 is complete control
Outline: (§2)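 2-leaf plants; flood to 3 cm, dose into water, hold depth; greenhouse 13–15 d; visual score 0–100 vs controls; dash = not tested.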

[8] = test system: ryegrass, Italian (Italian ryegrass, Lolium multiflorum); assay: Test A preemergence, Italian ryegrass; settings: Preemergence, 0 to 100 scale (0 no effect, 100 complete control)
Outline: as §1

[9] = test system: galium (catchweed bedstraw, Galium aparine); assay: Test A postemergence, galium
Outline: as §1

[10] = test system: foxtail, giant (giant foxtail, Setaria faberii); assay: Test A postemergence, giant foxtail
Outline: as §1

kochia (Kochia scoparia) [11] = assay: Test A postemergence, kochia
Outline: as §1

[12] = test system: barnyardgrass (Echinochloa crus-galli); assay: Test A preemergence, barnyardgrass; settings: Preemergence, 0 to 100 scale (0 no effect, 100 complete control)
Outline: as §1

[13] = test system: pigweed (Amaranthus retroflexus); assay: Test A preemergence, pigweed; settings: Preemergence, 0 to 100 scale (0 no effect, 100 complete control)
Outline: as §1

[14] = test system: sedge, umbrella (small-flower umbrella sedge, Cyperus difformis); assay: Test B flooded paddy test, umbrella sedge; settings: 250 g ai/ha, Flood; visual rating after 13 to 15 days; scale 0 to 100, 0 is no effect, 100 is complete control
Outline: as §2

corn (Zea mays) = assay: Test A postemergence, corn
Outline: as §1

[15] = test system: barnyardgrass (Echinochloa crus-galli); assay: Test B flooded paddy test, barnyardgrass; settings: 250 g ai/ha, Flood; visual rating after 13 to 15 days; scale 0 to 100, 0 is no effect, 100 is complete control
Outline: as §2

[16] = test system: ragweed (common ragweed, Ambrosia elatior); assay: Test A postemergence, ragweed
Outline: as §1

rice (Oryza sativa) = assay: Test B flooded paddy test, rice; settings: 250 g ai/ha, Flood; visual rating after 13 to 15 days; scale 0 to 100, 0 is no effect, 100 is complete control
Outline: as §2

[17] = test system: ryegrass, Italian (Italian ryegrass, Lolium multiflorum); assay: Test A postemergence, Italian ryegrass
Outline: as §1

[18] = test system: ragweed (common ragweed, Ambrosia elatior); assay: Test A preemergence, ragweed; settings: Preemergence, 0 to 100 scale (0 no effect, 100 complete control)
Outline: as §1

[19] = 125 g ai/ha, postemergence, 0 to 100 scale, 0 is no effect, 100 is complete control, approximately 10 days
[20] = 500 g ai/ha, postemergence, 0 to 100 scale, 0 is no effect, 100 is complete control, approximately 10 days
[21] = 31 g ai/ha, postemergence, 0 to 100 scale, 0 is no effect, 100 is complete control, approximately 10 days
[22] = Postemergence, 31 g ai/ha, 0 to 100 scale (0 no effect, 100 complete control)

Compound | Plant response rating, Kochia (kochia (Kochia scoparia) [1]; 125 g ai/ha) | Plant response rating, Foxtail, Giant ([2]; 125 g ai/ha) | Plant response rating, Barnyardgrass [3, 19] | Plant response rating, Pigweed [4, 19] | Plant response rating, Wheat [5, 19] | Plant response rating, Blackgrass [6, 19] | Plant response rating, Ducksalad [7] | Plant response rating, Ryegrass, Italian ([8]; 125 g ai/ha) | Plant response rating, Galium [9, 19] | Plant response rating, Foxtail, Giant [10, 19] | Plant response rating, Kochia (kochia (Kochia scoparia) [11]; [19]) | Plant response rating, Barnyardgrass ([12]; 125 g ai/ha) | Plant response rating, Pigweed ([13]; 125 g ai/ha) | Plant response rating, Sedge, Umbrella [14] | Plant response rating, Corn (corn (Zea mays); [19]) | Plant response rating, Barnyardgrass [15] | Plant response rating, Ragweed [16, 19] | Plant response rating, Rice (rice (Oryza sativa)) | Plant response rating, Ryegrass, Italian [17, 19] | Plant response rating, Ragweed ([18]; 125 g ai/ha) | other results
FCCCOc1c(F)cccc1Oc1ncc(Cl)cn1 [Compound 26] | 10 | 50 | 10 | 60 | 0 | 0 | 30 | 0 | 70 | 10 | 60 | 40 | 90 | 0 | 0 | 0 | 0 | 0 | 0 | 0 | Plant response rating, Kochia (kochia (Kochia scoparia) [1]; 500 g ai/ha): 100; Plant response rating, Foxtail, Giant ([2]; 500 g ai/ha): 100; Plant response rating, Barnyardgrass [3, 20]: 60; Plant response rating, Pigweed [4, 20]: 90; Plant response rating, Wheat [5, 20]: 0; Plant response rating, Blackgrass [6, 20]: 50; Plant response rating, Ryegrass, Italian ([8]; 500 g ai/ha): 20; Plant response rating, Galium [9, 20]: 50; Plant response rating, Foxtail, Giant [10, 20]: 70; Plant response rating, Kochia (kochia (Kochia scoparia) [11]; [20]): 90; Plant response rating, Barnyardgrass ([12]; 500 g ai/ha): 100; Plant response rating, Pigweed ([13]; 500 g ai/ha): 100; Plant response rating, Corn (corn (Zea mays); [20]): 10; Plant response rating, Ragweed [16, 20]: 20; Plant response rating, Ryegrass, Italian [17, 20]: 0; Plant response rating, Ragweed ([18]; 500 g ai/ha): 20
N#Cc1cccc(Oc2ncc(Cl)cn2)c1OCc1ccccc1Cl [Compound 2] | 0 | 10 | 0 | 0 | 0 | 0 | 0 | 0 | 20 | 0 | 30 | 0 | 0 | 0 | 0 | 0 | 0 | 0 | 0 | 0 | Plant response rating, Kochia (kochia (Kochia scoparia) [1]; 500 g ai/ha): 0; Plant response rating, Foxtail, Giant ([2]; 500 g ai/ha): 70; Plant response rating, Barnyardgrass [3, 20]: 10; Plant response rating, Pigweed [4, 20]: 10; Plant response rating, Wheat [5, 20]: 0; Plant response rating, Blackgrass [6, 20]: 0; Plant response rating, Ryegrass, Italian ([8]; 500 g ai/ha): 0; Plant response rating, Galium [9, 20]: 50; Plant response rating, Foxtail, Giant [10, 20]: 10; Plant response rating, Kochia (kochia (Kochia scoparia) [11]; [20]): 40; Plant response rating, Barnyardgrass ([12]; 500 g ai/ha): 10; Plant response rating, Pigweed ([13]; 500 g ai/ha): 20; Plant response rating, Corn (corn (Zea mays); [20]): 30; Plant response rating, Ragweed [16, 20]: 10; Plant response rating, Ryegrass, Italian [17, 20]: 0; Plant response rating, Ragweed ([18]; 500 g ai/ha): 0
FC(F)(F)C(F)(F)CCCOc1c(Br)cccc1Oc1ncc(Cl)cn1 [Compound 49] | 0 | 40 | 0 | 60 | 0 | 0 | 0 | 0 | 30 | 10 | 30 | 10 | 0 | 0 | 10 | 0 | 20 | 0 | 20 | 0 | Plant response rating, Kochia (kochia (Kochia scoparia) [1]; 31 g ai/ha): 0; Plant response rating, Foxtail, Giant ([2]; 31 g ai/ha): 0; Plant response rating, Barnyardgrass [3, 21]: 0; Plant response rating, Pigweed [4, 21]: 10; Plant response rating, Wheat [5, 21]: 0; Plant response rating, Blackgrass [6, 21]: 0; Plant response rating, Ryegrass, Italian ([8]; 31 g ai/ha): 0; Plant response rating, Galium [9, 21]: 10; Plant response rating, Foxtail, Giant [10, 21]: 0; Plant response rating, Kochia (kochia (Kochia scoparia) [11]; [21]): 0; Plant response rating, Barnyardgrass ([12]; 31 g ai/ha): 0; Plant response rating, Pigweed ([13]; 31 g ai/ha): 0; Plant response rating, Corn (corn (Zea mays); [21]): 10; Plant response rating, Ragweed [16, 21]: 10; Plant response rating, Ryegrass, Italian [17, 21]: 0; Plant response rating, Ragweed ([18]; 31 g ai/ha): 0
FCCCOc1c(Cl)cccc1Oc1ncc(Cl)cn1 [Compound 44] | 40 | 80 | 10 | 70 | 0 | 10 | 70 | 0 | 20 | 20 | 70 | 20 | 100 | 30 | 10 | 0 | 0 | 0 | 0 | 0 | Plant response rating, Kochia (kochia (Kochia scoparia) [1]; 31 g ai/ha): 0; Plant response rating, Foxtail, Giant ([2]; 31 g ai/ha): 10; Plant response rating, Barnyardgrass [3, 21]: 0; Plant response rating, Pigweed [4, 21]: 30; Plant response rating, Wheat [5, 21]: 0; Plant response rating, Blackgrass [6, 21]: 0; Plant response rating, Ryegrass, Italian ([8]; 31 g ai/ha): 0; Plant response rating, Galium [9, 21]: 10; Plant response rating, Foxtail, Giant [10, 21]: 0; Plant response rating, Kochia (kochia (Kochia scoparia) [11]; [21]): 20; Plant response rating, Barnyardgrass ([12]; 31 g ai/ha): 10; Plant response rating, Pigweed ([13]; 31 g ai/ha): 10; Plant response rating, Corn (corn (Zea mays); [21]): 0; Plant response rating, Ragweed [16, 21]: 0; Plant response rating, Ryegrass, Italian [17, 21]: 0; Plant response rating, Ragweed ([18]; 31 g ai/ha): 0
FC(F)(F)CCOc1c(I)cccc1Oc1ncc(Cl)cn1 [Compound 69] | 100 | 100 | 100 | 100 | 30 | 80 | 100 | 50 | 100 | 100 | 100 | 100 | 100 | 100 | 70 | 40 | 40 | 15 | 90 | 0 | Plant response rating, Kochia (kochia (Kochia scoparia) [1]; 31 g ai/ha): 80; Plant response rating, Foxtail, Giant ([2]; 31 g ai/ha): 90; Plant response rating, Barnyardgrass [3, 22]: 60; Plant response rating, Pigweed [4, 22]: 100; Plant response rating, Wheat [5, 22]: 0; Plant response rating, Blackgrass [6, 22]: 30; Plant response rating, Ryegrass, Italian ([8]; 31 g ai/ha): 10; Plant response rating, Galium [9, 22]: 60; Plant response rating, Foxtail, Giant [10, 22]: 40; Plant response rating, Kochia (kochia (Kochia scoparia) [11]; [22]): 90; Plant response rating, Barnyardgrass ([12]; 31 g ai/ha): 90; Plant response rating, Pigweed ([13]; 31 g ai/ha): 90; Plant response rating, Corn (corn (Zea mays); [22]): 20; Plant response rating, Ragweed [16, 22]: 30; Plant response rating, Ryegrass, Italian [17, 22]: 0; Plant response rating, Ragweed ([18]; 31 g ai/ha): 0
